Measurements from patent US20180128830A1, “DETECTION OF HUMAN CYTOMEGALOVIRUS IN BREAST CANCER” (priority 2015, published 2018).
Where “and” joins values, the source holds several entries; their conditions need not be identical. Equal values may be shown once.

Assays:
[1] = system: MDA-MB-231 cells; assay: Transcriptional profiling, Human Tumor Metastasis RT2 Profiler PCR Array; assay type: cell-based; settings: 100 ng/mL, 5 hrs
Experimental: RNA was harvested from 10×10^6 MDA-MB-231 cells that were mock treated or treated with 100 ng/mL cmvIL-10 or hIL-10 for 5 hrs using the RNeasy Midi Kit and RNAse-Free DNase set (Qiagen, Valencia, Calif.). From the isolated RNA, cDNA was prepared using the RT^2 First Strand Kit (SA Biosciences, Frederick, Md.) and subsequently loaded into a 96-well breast cancer metastasis profiler PCR array (PAHS-028ZD) with system RT^2 SYBR Green Mastermix (SA Biosciences). The plates were run using the CFX96 Real-Time system cycler (BioRad, Hercules, Calif.) with the following amplification program: 95° C. for 10 min, 95° C. for […] with a slow ramp rate for 1.0 c/sec and 60° C. for 1 min. The data from three biological replicates for each treatment was analyzed by the ΔΔCT method according to manufacturer's instructions using the RT^2 profiler PCR array data analysis program located on the SABiosciences web portal and is reported as fold change relative to control.

[2] = system: MDA-MB-231 cells; assay: Migration assay toward EGF (modified Boyden chamber); assay type: cell-based, human; settings: no EGF, 5 hrs
Experimental: Cells were harvested and resuspended at a density of 2×10^6 cells per ml in complete medium. A total volume of 0.1 ml cell suspension (2×10^5 cells) was placed in the upper chamber of a ThinCert filter with 8 μm pores in a 24-well plate (Greiner Bio-One North America, Monroe, Calif.). […] Medium from the lower chamber was collected, used to rinse the bottom of the filter twice, and then centrifuged at 1000 rpm for 10 min. The cell pellet was resuspended in 0.1 ml media and transferred to a white 96-well plate. Viable cell number was quantified using the Cell Titer Glo Assay kit according to the manufacturer's protocol.

[3] = system: Stat3; assay: Western blot for Stat3 phosphorylation in MDA-MB-231 cells; assay type: cell-based, human; settings: 100 ng/ml, 15 min
Experimental: For western blotting, cells were treated with 100 ng/ml cmvIL-10, hIL-10, IFNγ or PBS for 15 min, then harvested into cell lysis buffer (150 mM NaCl, 20 mM HEPES, 0.5% Triton-X-100, 1 mM NaOV4, 1 mM EDTA, 0.1% NaN3). Lysates were clarified, proteins were separated via SDS-PAGE, and then transferred to a nitrocellulose membrane. Then membrane was incubated in blocking solution (5% milk+1×TBS-T) for 1 hr, then probed with primary antibody at a 1:1000 dilution (total Stat3 or pStat3, total Stat1 or pStat1) in blocking solution overnight at 4° C. After washing, the membranes were incubated with a 1:2000 dilution of appropriate AP-conjugated secondary antibody and bands were detected using Western Blue stabilized AP substrate (Promega, Madison, Wis.). For analysis of secreted proteins, supernatants were collected at various time points, analyzed by SDS-PAGE and then immunoblotted as above for cmvIL-10, hIL-10, or serpin E1/PAI.

hIL-10: purified recombinant human interleukin-10 from R&D Systems
Fold Change vs. Mock, ACTB ([1]; ACTB mRNA): 1.3287 fold | Fold Change vs. Mock, APC ([1]; APC mRNA): 1.0052 fold | Fold Change vs. Mock, B2M ([1]; B2M mRNA): 0.9897 fold | Fold Change vs. Mock, BRMS1 ([1]; BRMS1 mRNA): 1.1154 fold | Fold Change vs. Mock, CCL7 ([1]; CCL7 mRNA): 0.9314 fold | Fold Change vs. Mock, CD44 ([1]; CD44 mRNA): 1.3402 fold | Fold Change vs. Mock, CD82 ([1]; CD82 mRNA): 1.1019 fold | Fold Change vs. Mock, CDH1 ([1]; CDH1 mRNA): 0.7618 fold | Fold Change vs. Mock, CDH6 ([1]; CDH6 mRNA): 0.9314 fold | Fold Change vs. Mock, CDH11 ([1]; CDH11 mRNA): 1.0425 fold | Fold Change vs. Mock, CDKN2A ([1]; CDKN2A mRNA): 0.9314 fold | Fold Change vs. Mock, CHD4 ([1]; CHD4 mRNA): 1.1115 fold | Fold Change vs. Mock, COL4A2 ([1]; COL4A2 mRNA): 1.51 fold and 1.5131 fold | Fold Change vs. Mock, CST7 ([1]; CST7 mRNA): 0.8858 fold | Fold Change vs. Mock, CTBP1 ([1]; CTBP1 mRNA): 0.9576 fold | Fold Change vs. Mock, CTNNA1 ([1]; CTNNA1 mRNA): 0.9428 fold | Fold Change vs. Mock, CTSK ([1]; CTSK mRNA): 0.8482 fold | Fold Change vs. Mock, CTSL1 ([1]; CTSL1 mRNA): 0.8981 fold | Fold Change vs. Mock, CXCL12 ([1]; CXCL12 mRNA): 0.9314 fold | Fold Change vs. Mock, CXCR4 ([1]; CXCR4 mRNA): 0.8751 fold | Fold Change vs. Mock, DENR ([1]; DENR mRNA): 0.9626 fold | Fold Change vs. Mock, EPHB2 ([1]; EPHB2 mRNA): 0.9028 fold | Fold Change vs. Mock, ETV4 ([1]; ETV4 mRNA): 1.0175 fold | Fold Change vs. Mock, EWSR1 ([1]; EWSR1 mRNA): 1.3104 fold | Fold Change vs. Mock, FAT1 ([1]; FAT1 mRNA): 1.4414 fold | Fold Change vs. Mock, FGFR4 ([1]; FGFR4 mRNA): 0.9693 fold | Fold Change vs. Mock, FLT4 ([1]; FLT4 mRNA): 1.0317 fold | Fold Change vs. Mock, FN1 ([1]; FN1 mRNA): 1.2100 fold | Fold Change vs. Mock, FXYD5 ([1]; FXYD5 mRNA): 1.0479 fold | Fold Change vs. Mock, GAPDH ([1]; GAPDH mRNA): 1.2121 fold | Fold Change vs. Mock, GNRH1 ([1]; GNRH1 mRNA): 1.1647 fold | Fold Change vs. Mock, HGF ([1]; HGF mRNA): 0.9314 fold | Fold Change vs. Mock, HPRT1 ([1]; HPRT1 mRNA): 1.3827 fold | Fold Change vs. Mock, HPSE ([1]; HPSE mRNA): 0.8645 fold | Fold Change vs. Mock, HRAS ([1]; HRAS mRNA): 1.0625 fold | Fold Change vs. Mock, HTATIP2 ([1]; HTATIP2 mRNA): 0.9138 fold | Fold Change vs. Mock, IGF1 ([1]; IGF1 mRNA): 0.9794 fold | Fold Change vs. Mock, IL1B ([1]; IL1B mRNA): 0.6771 fold | Fold Change vs. Mock, IL18 ([1]; IL18 mRNA): 0.7526 fold | Fold Change vs. Mock, ITGA7 ([1]; ITGA7 mRNA): 0.8796 fold | Fold Change vs. Mock, ITGB3 ([1]; ITGB3 mRNA): 1.0317 fold | Fold Change vs. Mock, KISS1R ([1]; KISS1R mRNA): 0.9314 fold | Fold Change vs. Mock, KISS1 ([1]; KISS1 mRNA): 1.5856 fold | Fold Change vs. Mock, KRAS ([1]; KRAS mRNA): 0.9931 fold | Fold Change vs. Mock, MCAM ([1]; MCAM mRNA): 1.0353 fold | Fold Change vs. Mock, MDM2 ([1]; MDM2 mRNA): 0.9461 fold | Fold Change vs. Mock, MET ([1]; MET mRNA): 1.1173 fold | Fold Change vs. Mock, METAP2 ([1]; METAP2 mRNA): 1.0736 fold | Fold Change vs. Mock, MGAT5 ([1]; MGAT5 mRNA): 1.3590 fold | Fold Change vs. Mock, MMP2 ([1]; MMP2 mRNA): 1.5157 fold | Fold Change vs. Mock, MMP3 ([1]; MMP3 mRNA): 0.8080 fold | Fold Change vs. Mock, MMP7 ([1]; MMP7 mRNA): 0.8123 fold | Fold Change vs. Mock, MMP9 ([1]; MMP9 mRNA): 0.9347 fold | Fold Change vs. Mock, MMP10 ([1]; MMP10 mRNA): 0.6866 fold | Fold Change vs. Mock, MMP11 ([1]; MMP11 mRNA): 1.0867 fold | Fold Change vs. Mock, MMP13 ([1]; MMP13 mRNA): 0.9777 fold | Fold Change vs. Mock, MTA1 ([1]; MTA1 mRNA): 0.9395 fold | Fold Change vs. Mock, MTSS1 ([1]; MTSS1 mRNA): 1.2397 fold | Fold Change vs. Mock, MYC ([1]; MYC mRNA): 0.7423 fold | Fold Change vs. Mock, MYCL1 ([1]; MYCL1 mRNA): 1.0644 fold | Fold Change vs. Mock, NF2 ([1]; NF2 mRNA): 1.3496 fold | Fold Change vs. Mock, NME1 ([1]; NME1 mRNA): 1.1000 fold | Fold Change vs. Mock, NME4 ([1]; NME4 mRNA): 0.9965 fold | Fold Change vs. Mock, NR4A3 ([1]; NR4A3 mRNA): 0.8151 fold | Fold Change vs. Mock, PLAUR ([1]; PLAUR (uPAR) mRNA): 1.87 fold and 1.8628 fold | Fold Change vs. Mock, PNN ([1]; PNN mRNA): 1.2901 fold | Fold Change vs. Mock, PTEN ([1]; PTEN mRNA): 0.8645 fold | Fold Change vs. Mock, RB1 ([1]; RB1 mRNA): 0.9298 fold | Fold Change vs. Mock, RORB ([1]; RORB mRNA): 0.8827 fold | Fold Change vs. Mock, RPLP0 ([1]; RPLP0 mRNA): 1.0000 fold | Fold Change vs. Mock, RPSA ([1]; RPSA mRNA): 1.0886 fold | Fold Change vs. Mock, SERPINE1 ([1]; SERPINE1 (PAI-1) mRNA): 3.12 fold and 3.0262 fold | Fold Change vs. Mock, SET ([1]; SET mRNA): 0.9234 fold | Fold Change vs. Mock, SMAD2 ([1]; SMAD2 mRNA): 0.7859 fold | Fold Change vs. Mock, SMAD4 ([1]; SMAD4 mRNA): 0.8279 fold | Fold Change vs. Mock, SRC ([1]; SRC mRNA): 0.9760 fold | Fold Change vs. Mock, SSTR2 ([1]; SSTR2 mRNA): 0.7120 fold | Fold Change vs. Mock, SYK ([1]; SYK mRNA): 0.9314 fold | Fold Change vs. Mock, TCF20 ([1]; TCF20 mRNA): 0.9676 fold | Fold Change vs. Mock, TGEB1 ([1]; TGEB1 (Transforming growth factor, beta 1) mRNA): 0.9931 fold | Fold Change vs. Mock, TIMP2 ([1]; TIMP2 mRNA): 0.8601 fold | Fold Change vs. Mock, TIMP3 ([1]; TIMP3 mRNA): 0.7631 fold | Fold Change vs. Mock, TIMP4 ([1]; TIMP4 mRNA): 0.9122 fold | Fold Change vs. Mock, TNFSF10 ([1]; TNFSF10 mRNA): 0.7955 fold | Fold Change vs. Mock, TP53 ([1]; TP53 mRNA): 0.8873 fold | Fold Change vs. Mock, TRPM1 ([1]; TRPM1 mRNA): 0.9314 fold | Fold Change vs. Mock, TSHR ([1]; TSHR mRNA): 0.9314 fold | Fold Change vs. Mock, VEGFA ([1]; VEGFA mRNA): 0.5987 fold | VEGFA fold change expressed as negative fold (down-regulation) ([1]; VEGFA mRNA): 1.67 fold | cell movement toward cytokine alone [2]: failed to stimulate cell movement | 83 kD band of phosphorylated Stat3 (pStat3) [3]: detected
